Assay results taken from patent US20090104154A1, “Composition and method for killing of tumours” (COMMONWEALTH SCIENTIFIC AND INDUSTRIAL RESEARCH ORGANISATION, priority 2002, published 2009).

Experiments:
[1] = cited from earlier work
PC3 tumours = assay: GDEPT on subcutaneous human PC3 tumours in nude mice; type: in vivo, mouse
Description: The ability of the PNP-based GDEPT system to suppress tumour growth in vivo was tested using subcutaneous human PC3 tumours grown in nude mice. Once the tumours were established (see example 1), on day 0 two groups of mice received one intratumoural injection of 1×10^10 VP of OAdV220. Two further groups received virus storage buffer only. Following this treatment all animals in one of the virus groups and all animals in one of the no-virus groups received a daily intraperitoneal (ip) injection of fludarabine (75 mg/m^2/day) for the next five days. Animal weights and tumour volumes were recorded twice weekly. The vector only group was compared to the nil virus, nil prodrug group. The group that received vector plus fludarabine was compared with the group that received fludarabine only. The OAdV220 vector alone caused a 30% reduction in tumour growth. However, the overall tumour growth suppression was increased to 71% when virus was used in conjunction with Fludarabine.
The cut off for response was arbitrarily taken as a tumour volume of 600 mm^3, half the maximum tumour volume (1200 mm^3) allowed before mice had to be culled because of tumour burden. By day 25, 13 of 14 tumours treated with OAdV220 plus fludarabine were in the responder category compared with 6 of 9 that received fludarabine only, and 9 of 12 which received virus only. […]

RM-1 tumours = assay: GDEPT on subcutaneous tumours from RM-1 cells pre-transduced in vitro; type: in vivo, mouse; details: day 15; Fludarabine alone 600 mg/m^2/day compared with nil treatment
Description: RM-1 cells (3×10^7) were transduced in culture with 1×10^3 or 1×10^2 VP/cell of OAdV220 or mock transduced with virus dilution buffer on day −1. On day 0, 12 mice/group were subcutaneously injected with 2.5×10^5 virus- or mock-transduced cells. Fludarabine was then administered from days 1-5 at 600 mg/m^2/day. Tumour volume and animal survival were monitored three times per week. A line of best fit was generated for each treatment curve and the ability to suppress tumour growth or increase animal survival was determined from the days taken to reach the midpoint of tumour growth or animal survival respectively.

[2] = tested on: intraprostatic RM-1 tumours; assay: GDEPT ± lipid on intraprostatic RM-1 tumours; type: in vivo, mouse; details: day 18; relative to the equivalent non-fludarabine treated tumours; fludarabine 600 mg/m^2/day ip
Description: In order to mimic clinical prostate cancer in an immunocompetent animal model, on day 1 RM-1 tumours were established in the prostate of C57BL/6 mice by intraprostatic injection of 5×10^3 RM-1 cells (˜50 μl cell suspension) per mouse. On day 4, these mice received an intraprostatic injection of 1×10^10 VP/tumour of OAdV220, either alone or formulated with 10 μM CS87 (see groups below). Fludarabine was then administered ip at 600 mg/m^2/day to appropriate groups from days 5-10. On day 6, pseudometastases were induced in the lungs by intravenous injection of 2.5×10^5 RM-1 cells (˜50 μl cell suspension) per mouse. Due to the limitations of surgery only 30 intraprostate injections can be performed per day. The experiment was therefore set up on 4 different days, although care was taken not to upset the timing of the experiment. The mice were weighed twice weekly, and sacrificed on day 18. Tissues were harvested for analysis (prostate volume, prostate weights).
Treatment groups were as follows:
Group A OAdV220 alone±fludarabine
Group B Nil treatment (storage buffer)±fludarabine
Group C OAdV220 plus […] CS87±fludarabine
Group D 10 μM CS87 alone±fludarabine

| SMILES | potency as a growth inhibitor relative to 6 MP [1] | responding tumours (tumour volume below 600 mm^3) (PC3 tumours; day 25) | responding tumours (tumour volume below 600 mm^3) (PC3 tumours; day 53) | reduction in mean tumour volume (RM-1 tumours) | decrease in tumour volume [2] | decrease in tumour weight [2] |
| --- | --- | --- | --- | --- | --- | --- |
| Nc1nc(F)nc2nc[nH]c12 [2FA, 2-fluoroadenine] | ~100 fold |  |  |  |  |  |
| Nc1nc(F)nc2c1ncn2[C@@H]1O[C@H](CO)[C@@H](O)[C@@H]1O [Fludarabine, fludarabine] |  | 6 of 9 | 0/5 | 17% | 12% | 17% |
